In patent US11584727B2, “2-thioxothiazolidin-4-one derivatives active as transthyretin ligands and uses thereof” (BSIM Therapeutics, S.A., priority 2014, dated 2023):

Assays:
[1] = target: T1, transthyretin (TTR) (Homo sapiens, UniProt P02766); test: Thyroxine (T4) binding competition by gel electrophoresis in plasma, TTR band; details: for T4 bound to TTR: human plasma, [125I]T4, in presence of compound
T1 construct: from tissue; host or cells: human plasma
Experimental: (§1) Briefly, upon incubation of human plasma in the presence of the test compounds and radio-labeled T4 ([125I]T4), the samples are subjected to native PAGE. After electrophoresis, the gels are dried, subjected to phosphor imaging, and the intensity of the protein bands is then compared. […] The intensity of the bands decreases, as compared to the control samples (absence of compound), if the compound binds to the protein(s) competing with T4.
(§2) FIG. 24 presents the results of these experiments, where the bands in the gel correspond to the major T4 binding plasma proteins. The intensity of the bands decreases, as compared to the control samples (absence of compound), if the compound binds to the protein(s) competing with T4. The results were analyzed by calculation of the TTR/total (TTR+ALB+TBG) ratio for each sample collected at different time points. The displacement of T4 from TTR is calculated and plotted as the difference between the average of ratios of TTR/total protein for each control sample and the average of the ratios of TTR/total protein.
The assay for the binding to TTR through competition with T4 is performed by T4 binding gel electrophoresis as previously described in reference.
(§3) Five (5) μL of human plasma plus 0.25-0.5 μL of [125I]T4 (specific radioactivity 1250 μCi/m; concentration 320 μCi/mL; Perkin Elmer, Boston, Mass., U.S.A.) plus 5 μL of PBS with glycerol 50% are incubated for 1 hour at room temperature (RT) and the samples are subjected to native PAGE. After electrophoresis, the gels are dried, subjected to phosphor imaging (Typhoon 8600; Molecular Diagnostics, Amersham Biosciences), and analyzed using the ImageQuant program version 5.1. The intensity of the protein bands is compared. […]
The results are analyzed by calculation of the TTR/total (TTR+ALB+TBG) ratio for each sample collected at different time points. The displacement of T4 from TTR is calculated as the difference between the average of ratios of TTR/total protein for each control sample and the average of the ratios of TTR/total protein.

[2] = target: T2, albumin (ALB) (Homo sapiens, UniProt P02768); test: Thyroxine (T4) binding competition by gel electrophoresis in plasma, albumin band; details: [125I]T4, in presence of compound
T2 construct: from tissue; host or cells: human plasma
Experimental: as §1
as §2, with “The intensity of the bands decreases, as compared to the control samples (absence of compound), if the compound binds to the protein(s) competing with T4.” left out, “protein. […]” for “protein.”
as §3, with “5.1.” for “5.1. The intensity of the protein bands is compared.”

[3] = target: T3, thyroxine-binding globulin (TBG) (Homo sapiens, UniProt P05543); test: Thyroxine (T4) binding competition by gel electrophoresis in plasma, TBG band; details: [125I]T4, in presence of compound
T3 construct: from tissue; host or cells: human plasma
T3 sequence (P05543 21-415): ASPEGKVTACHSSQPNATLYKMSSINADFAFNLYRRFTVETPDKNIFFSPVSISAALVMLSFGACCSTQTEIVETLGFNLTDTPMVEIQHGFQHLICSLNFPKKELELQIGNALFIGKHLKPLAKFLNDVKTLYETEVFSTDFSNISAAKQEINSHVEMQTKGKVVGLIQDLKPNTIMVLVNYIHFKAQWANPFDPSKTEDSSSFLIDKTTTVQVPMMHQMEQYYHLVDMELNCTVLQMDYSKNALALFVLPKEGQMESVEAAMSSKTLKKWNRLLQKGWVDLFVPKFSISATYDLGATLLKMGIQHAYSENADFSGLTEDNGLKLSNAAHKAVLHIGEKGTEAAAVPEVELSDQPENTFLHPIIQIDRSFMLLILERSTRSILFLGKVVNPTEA
Experimental: as §1
as §2, with “The intensity of the bands decreases, as compared to the control samples (absence of compound), if the compound binds to the protein(s) competing with T4.” left out, “protein. […]” for “protein.”
as §3, with “5.1.” for “5.1. The intensity of the protein bands is compared.”

[4] = HepG2 cell viability, resazurin reduction assay; assay type: cell-based; details: human, HepG2 hepatoma cells, approximately 72 hours incubation, read-out: inhibitory dose (ID50), cell viability
Text: Cell viability of HepG2 hepatoma cells was quantified in order to assess the toxicity of the compounds at increasing concentrations. The used assay is described in detail in the “Experimental Evaluation of Cytotoxicity of Compounds using Cell-based Assays” section in “Materials and Methods”. This is a relevant assessment not just to discard potential concerns of liver damage (which is a problem reported for many drugs) but also because of the long-term nature of the treatments that patients suffering from TTR-mediated amyloidoses need to undertake.
Adherent human hepatoma cells HepG2 were cultured in DMEM (Dulbecco's Modified Eagle's Medium) with 10% fetal bovine serum (FBS), 100 U/mL penicillin, […] streptomycin, and 1 mM sodium pyruvate. The cells were grown in 75 cm^2 culture flasks at 37° C., in an atmosphere of 5% CO2, and subcultured twice a week using a trypsin-EDTA solution.
Upon 3 to 4 days of growth and reaching approximately 90% confluence, HepG2 cells were plated in 96-well microplates with cell density of 12×10^3 cells/well and in a volume of 100 μL per well.
The compounds are dissolved in DMSO and subsequently diluted in DMEM (in 9 intermediate […] concentrations). After adhesion of HepG2 cells to the microplates, […] 100 μL of each solution of intermediate compound concentration were added to each well (in quadruplicate). Positive controls were done with 10 wells containing only cells; solvent controls resulted from the analysis of the three highest DMSO concentrations tested and were carried out in triplicate.
After addition of the compounds to the cells, the microplates were incubated for approximately 72 hours at 37° C. in an atmosphere of 5% CO2 until the cell viability assay was performed.
The cell viability of HepG2 cells in the presence of test compounds was assessed by the resazurin reduction assay. Resazurin is a redox indicator that is converted into resorufin through reduction reactions of metabolically active cells. In the oxidized form it presents a purplish blue color, while the reduced form presents a purple-pink color.
A stock solution of 0.01% resazurin in PBS is diluted 1:10 in incomplete RPMI 1640 cell medium (without addition of antibiotics and FBS). After washing the cells with 200 μL PBS containing Ca^2+ and Mg^2+, 200 μL of resazurin 0.001% are added to the wells. Control runs with incomplete RPMI 1640 medium only and (without cells) are done in triplicate. […]
To quantify the reduction of resazurin to resorufin, microplate absorbance readings were taken at two wavelengths, 540 nm (reduced form) and 630 nm (oxidized form), in a Biotek spectrophotometer microplate reader. The percentage of viable cells at each compound concentration is determined using the formula: […]

T2 sequence (P02768 25-609): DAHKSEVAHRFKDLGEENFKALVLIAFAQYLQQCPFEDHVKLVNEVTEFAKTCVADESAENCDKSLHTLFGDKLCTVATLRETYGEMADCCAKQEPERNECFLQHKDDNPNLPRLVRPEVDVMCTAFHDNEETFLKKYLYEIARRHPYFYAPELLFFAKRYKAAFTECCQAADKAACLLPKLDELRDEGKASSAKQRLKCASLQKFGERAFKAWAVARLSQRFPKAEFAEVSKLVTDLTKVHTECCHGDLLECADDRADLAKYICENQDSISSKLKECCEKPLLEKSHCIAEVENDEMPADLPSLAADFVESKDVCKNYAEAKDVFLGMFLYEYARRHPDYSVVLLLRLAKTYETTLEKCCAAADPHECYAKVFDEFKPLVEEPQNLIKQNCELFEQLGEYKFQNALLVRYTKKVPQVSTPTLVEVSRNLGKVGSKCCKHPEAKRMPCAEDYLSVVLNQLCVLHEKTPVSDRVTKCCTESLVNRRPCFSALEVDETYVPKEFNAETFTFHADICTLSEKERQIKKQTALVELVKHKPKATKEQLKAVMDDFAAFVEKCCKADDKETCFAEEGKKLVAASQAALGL

| SMILES | T4 bound to TTR [1] [%] | T4 bound to ALB [2] [%] | T4 bound to TBG [3] [%] | IC50 at 72 h [4] [µM] | competition with T4 (in words) ([1]; T4 competition and gel electrophoresis) |
| --- | --- | --- | --- | --- | --- |
| O=C(O)c1ccc2nc(-c3cc(Cl)cc(Cl)c3)oc2c1 [Tafamidis, reference compound] | 14.4 | 32.0 | 53.6 | ~250 | – |
| COc1cc(/C=C2\SC(=S)N(CC(=O)O)C2=O)cc(Cl)c1O [AT50-A00 (Z), (Z)-3-hydroxycarbonylmethyl-5-(3′-chloro-4′-hydroxy-5′-methoxyphenylmethylidene)-2-thioxothiazolidin-4-one] | 14.2 | 31.5 | 54.3 | > 400 | competes with T4 |
